Experimental data as given in patent US4751222A, “2,3,4,5-tetrahydro-1H-3-benzazepines and CNS affecting use thereof” (Novo Industri A/S, priority 1985, dated 1988).
Where a name gives a salt, the structure may show the parent alone. Read-outs that look alike come from different tables or passages of the source. Values belong to the compound of their own block, whether it stands above or below them.

Tests used:
[1] = Life Sci. 34 (1984), 1529; cited from earlier work
dopamine D1 = conditions: cited from earlier work
dopamine D1 receptor = dopamine D1 receptor (Rattus norvegicus, UniProt P18901); assay: biochemical; conditions: read-out: Ki, dopamine stimulated adenylate cyclase
Sequence of dopamine D1 receptor (P18901 whole entry): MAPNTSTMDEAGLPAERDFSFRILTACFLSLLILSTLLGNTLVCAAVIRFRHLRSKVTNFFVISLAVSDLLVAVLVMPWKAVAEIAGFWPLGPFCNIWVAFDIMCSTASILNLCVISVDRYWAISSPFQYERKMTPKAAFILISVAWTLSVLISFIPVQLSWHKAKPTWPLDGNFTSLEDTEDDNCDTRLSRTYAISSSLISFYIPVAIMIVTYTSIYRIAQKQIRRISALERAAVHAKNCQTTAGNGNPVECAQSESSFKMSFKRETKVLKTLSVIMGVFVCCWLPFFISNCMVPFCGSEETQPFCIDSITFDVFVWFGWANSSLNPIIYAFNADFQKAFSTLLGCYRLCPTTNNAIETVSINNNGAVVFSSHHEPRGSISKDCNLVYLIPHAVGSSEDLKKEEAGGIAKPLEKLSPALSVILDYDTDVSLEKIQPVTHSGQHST
Text: Ki is the affinity of the tested compound for the dopamine D1 receptor as estimated from Schild analysis.

rats = assay: acute toxicity in rats, intraperitoneal; type: in vivo; conditions: 100 mg/kg intraperitoneal
Protocol: (§1) 8-chloro-7-hydroxy-3-methyl-5-(5-indanyl)-2,3,4,5-tetrahydro-1H-3-benzazepine and several other compounds of formula I were atoxic when given to rats and mice in a dosis of 100 mg/kg intraperitonealt.

mice = assay: acute toxicity in mice, intraperitoneal; type: in vivo; conditions: 100 mg/kg intraperitoneal
Protocol: as §1

[2] = Life Sci. 31 (1982), 637 et seq.

Compound: CN1CCc2cc(Cl)c(O)cc2[C@@H](c2ccccc2)C1 [SCH 23390, R-8-chloro-7-hydroxy-2,3,4,5-tetrahydro-3-methyl-5-phenyl-1H-3-benzazepine]
- duration of action [1]: short duration of action
- peroral adsorption [1]: poor peroral adsorption
- dopamine D1 activity (dopamine D1; Eur.J.Pharmacol. 91 (1983), 153 et seq.): selective D1 dopamine antagonist

Compound: 2,3,4,5-tetrahydro-9-chloro-7,8-dihydroxy-1-(4-hydroxyphenyl)-1H-3-benzazepine [SKF 82526]
- dopamine D1 activity (dopamine D1; [2]): selective but partial dopamine D1 agonists

Compound: Oc1cc2c(cc1O)C(c1ccccc1)CNCC2 (stereo not shown) [SKF 38393, 2,3,4,5-tetrahydro-7,8-dihydroxy-1-phenyl-1H-3-benzazepine]
- dopamine D1 activity (dopamine D1; [2]): selective but partial dopamine D1 agonists

- Ki (dopamine D1 receptor): 10 nM
Compound: CN1CCc2cc(Cl)c(O)cc2C(c2ccc(Cl)c3c2OCCC3)C1 (racemic) [Example No. 5f, 8-chloro-7-hydroxy-3-methyl-5-(5-chlorochroman-8-yl)-2,3,4,5-tetrahydro-1H-3-benzazepine]

Compound: Br.CN1CCc2cc(Cl)c(O)cc2C(c2ccc3c(c2)CCC3)C1 (stereo not shown) [Example No. 5a, 8-chloro-7-hydroxy-3-methyl-5-(5-indanyl)-2,3,4,5-tetrahydro-1H-3-benzazepine hydrobromide]
- toxicity in rats (rats): atoxic
- toxicity in mice (mice): atoxic

- Ki (dopamine D1 receptor): 6 nM
Compound: CN1CCc2cc(Cl)c(O)cc2C(c2cccc3ccoc23)C1 (racemic) [Example No. 5h, 8-chloro-7-hydroxy-3-methyl-5-(7-benzofuranyl)-2,3,4,5-tetrahydro-1H-3-benzazepine]

- Ki (dopamine D1 receptor): 21 nM
Compound: CN1CCc2cc(Cl)c(O)cc2C(c2ccc3c(c2)CCCC3)C1 (racemic) [Example No. 5j, 8-chloro-7-hydroxy-5-(1,2,3,4-tetrahydronaphth-6-yl)-3-methyl-2,3,4,5-tetrahydro-1H-3-benzazepine hydrochloride]
